Measured values reported in article PMC11574108, “4-Furanylvinylquinoline derivative as a new scaffold for the design of oxidative stress initiator and glucose transporter inhibitor drugs” (Scientific Reports, 2024).

Columns and labels:
NHDF = experiment: Monolayer MTS cytotoxicity against normal cells; format: cell-based; details: NHDF, normal human dermal fibroblasts, 72-h incubation
Text: (§1) The human colon carcinoma cell line HCT 116 with wild-type p53 (p53^+/+) and the human glioblastoma cell line U-251 were obtained from ATCC, while the HCT 116 with a p53 deletion (p53^−/−) was kindly provided by Prof. M. Rusin from the Maria Sklodowska-Curie Memorial Cancer Center and Institute of Oncology in Gliwice, Poland. The human chronic myelogenous leukaemia cell line K562 and the normal human cell dermal fibroblast cell line NHDF were purchased from Sigma-Aldrich and PromoCell, respectively. Both the HCT 116 and U-251 cell lines were cultured in Dulbecco’s modified Eagle’s medium (DMEM) supplemented with 10% inactivated foetal bovine serum (FBS). The DMEM for the NHDF contained 15% non-inactivated FBS. K562 cells were cultured in RPMI medium completed by 10% inactivated FBS. Additionally, the media were supplemented with antibiotics (streptomycin and penicillin – 1% v/v; Sigma-Aldrich). The cell culture was conducted in 75 cm^2 flasks (Nunc) under standard conditions (37 °C, 5% CO2 humidified atmosphere). Furthermore, the cell lines were frequently tested for mycoplasma using the qRT-PCR technique with specific Mycoplasma primers to confirm the lack of contamination.
(§2) The cells were seeded in 96-well plates (Nunc) with 5,000 or 4,000 cells per well for the cancer cells and NHDF, respectively, and incubated under standard conditions at 37 °C overnight. The culture media were then changed for freshly prepared solutions of the tested compounds in various concentrations. After 72-h incubation the antiproliferative assay was carried out as follows: the solutions of the compounds were changed in each well to 100 µL DMEM without phenol red and 20 µL of CellTiter 96 AQueous One Solution-MTS (Promega). The plates were incubated for 1 h at 37 °C, and the absorbance was then measured at 490 nm using a multi-plate reader (Synergy 4, BioTek). The experiment for each sample was repeated at least three times.
Additionally, the compounds were also tested for their cytotoxicity against normal cells – human dermal fibroblasts (NHDF).

K562 = experiment: Monolayer antiproliferative MTS assay; format: cell-based, human; details: 2D model; for IC50: MTS, 72-h incubation
Text: as §1
as §2, with “times. The results are presented as the half-maximal inhibitory concentration (IC50) values, which were estimated in comparison to untreated cells (control) and calculated using GraphPad Prism v.8.0 (USA).” for “times.”
(§3) However, the antiproliferative activity of derivative 13 with furan a ring was surprising. […] For this purpose, we selected two pancreatic cancer cell lines: AsPC-1, which is characterised by a deletion of the p53 protein[20] and PANC-1, which carries an R273H mutation. This mutation also occurred in the glioblastoma U-251 cell line[22],[23]. An additional non-adherent line that carries the TP53 mutation that results in the absence of p53 is the K562 leukemic cell line[24]. […] Moreover, 13 was selective toward […], as indicated by its SI values (3.35–9.41). Among all of the tested cell lines, the highest activity of the compound was found against the HCT 116 cells with the wild-type p53 protein (0.069 µM). […] The p53 protein also interacts with the metabolic pathways that are associated with glucose transport[25] as well as small molecules. In light of the above-mentioned facts, we also determined the cytotoxicity of the GLUT inhibitor BAY-876, which is based on a quinoline scaffold. […] Furthermore, BAY-876 was also toxic to normal cells.

U-251 = experiment: Monolayer antiproliferative MTS assay; format: cell-based, human; details: 2D monolayer; for IC50: MTS, 72-h incubation
Text: as §1
as §2, with “times. The results are presented as the half-maximal inhibitory concentration (IC50) values, which were estimated in comparison to untreated cells (control) and calculated using GraphPad Prism v.8.0 (USA).” for “times.”
as §3

CDK1 = experiment: qRT-PCR, CDK1 mRNA expression; format: cell-based, human; details: for CDK1 mRNA level vs control: HCT 116 p53-/-, 24 h
Method: The cells were seeded in 35 mm Petri dishes at a density of 500,000 cells and incubated at 37 °C for 24 h. The total RNA was isolated after incubation with solutions of 13 (0.5 µM and 1.0 µM) for 24 h and 48 h, respectively. The isolation from the samples was carried out according to a TRIzol™ Reagent protocol (Thermo Fisher Scientific). Synthesis of cDNA was performed with 2 µg of total RNA using a GoScript™ Reverse Transcriptase kit (Promega) with Oligo(dT)23 Primers. Real-Time PCR was carried out using a CFX96 Touch™ Real-Time PCR Detection System (Bio-Rad) in 10 µL reaction volume. Each sample contained SsoAdvanced™ Universal SYBR Green Supermix (Bio Rad), a specific primer pair mix (0.5 µM each), and 1 µL of cDNA. The reaction was performed under the following conditions: initial denaturation at 95 °C for 30 s; 40 cycles of denaturation at 95 °C for 15 s; annealing (primer-specific temperature) for 30 s, and extension at 72 °C for 60 s. The obtained data were analysed based on a comparison of the expression of the target genes and normalized to a reference gene (GAPDH) using the Livak-Schmittgen (2^−ΔΔCT) method. The experiments were performed at least three times.
In the next step, we decided to investigate the impact of derivative 13 on the mRNA level of CDK1 (the gene encoding one of the cell cycle regulation proteins) at various concentrations and time points (Fig. 4B). In the HCT 116 p53^+/+ cells after the application 0.5 µM of derivative 13, we noticed a slight increase in the expression of CDK1 after both 24 and 48-h. […] However, after a further incubation time, the mRNA level of this gene was similar to that in the untreated cells.

`O=[N+]([O-])c1ccc(/C=C/c2ccnc3ccccc23)o1` [Compound 13] was tested, and the IC50 (NHDF) was 649 ± 60 nM, the IC50 (K562) was 93 ± 9 nM and the “SI (selectivity index) K562” value (K562; relative to NHDF) was 6.98. For the same molecule, the IC50 (K562; Homo sapiens, K562, 72 h) was < 100 nM, the IC50 (U-251) was 87 ± 7 nM and the “SI (selectivity index) U-251” value (U-251; relative to NHDF) was 7.46. For the same molecule, the IC50 (U-251; Homo sapiens, U-251, 72 h) was < 100 nM, the “CDK1 mRNA level vs control” value (CDK1; 0.5 µM) was “two-fold higher” and the “CDK1 mRNA level vs control” value (CDK1; 1 µM) was “around one and the half times”. For the same molecule, the “CDK1 mRNA expression vs control” value (CDK1; U-251, 24 h) was “greater than two-fold upregulation”.
